From paper PMC9227765 (Viruses, 2022)
Like-named read-outs stand apart in the source and are kept apart here.

How the values were obtained:
EV-A71 H strain [1] = test: CPE protection assay, EV-A71 H strain (CellTiter-Glo); format: cell-based; settings: Enterovirus A, 100× TCID50, 72 h.p.i., read-out: EC50 against EV-A71 virus
EV-A71 virus [2] = test: Viral RNA reduction assay (qRT-PCR) in RD cells; format: cell-based, enterovirus A71; settings: MOI 0.1, 30 h.p.i.
[3] = Cytotoxicity, CellTiter-Glo cell viability, Vero cells; format: cell-based; settings: African green monkey, read-out: half-cytotoxic concentration (CC50)
Vero cells = test: as above; format: cell-based
[4] = tested on: EV-D68 STL-2014–12 strain; test: CPE protection assay, EV-D68; format: cell-based; settings: Enterovirus D, EVD68, EV-D68 STL-2014–12, RD
EV-A71 AH08/06 strain = test: CPE protection assay, EV-A71 clinical isolate AH08/06; format: cell-based; settings: Enterovirus A, EVA71, Huh-7; EV-A71 AH08/06, Huh7
[5] = tested on: CV-A6 TW-2007-00141 strain; test: CPE protection assay, CV-A6; format: cell-based, coxsackievirus A6
EV-A71 virus (H strain) [6] = test: Viral RNA loads in tissues of EV-A71-infected suckling mice (qRT-PCR); format: in vivo; settings: 200 mg/kg i.p. for 4 consecutive days
[7] = Cytotoxicity, CellTiter-Glo cell viability, Huh7 cells; format: cell-based; settings: human, read-out: half-cytotoxic concentration (CC50)
Huh7 cells = test: as above; format: cell-based
EV-A71 virus VP1 protein [8] = test: Western blot of VP1; format: cell-based, enterovirus A71; settings: RD cells, 24 h; dose-dependent; EIDD-1931 10 to 0.63 μM, EIDD-2801 100 to 6.3 μM
CV-B3 Nancy strain = test: CPE protection assay, CV-B3; format: cell-based, Coxsackievirus B3; settings: Enterovirus B, CVB3, CV-B3 Nancy, RD
RD cells = test: Cytotoxicity, CellTiter-Glo cell viability, RD cells; format: cell-based, Human
[9] = as above; format: cell-based, Human; settings: human, read-out: half-cytotoxic concentration (CC50)
EV-A71 virus (H strain) [10] = test: Lethal EV-A71 challenge of 1-day-old ICR suckling mice: survival and body weight; format: in vivo
[11] = in vivo, po, 800 mg; cited from earlier work
EV-A71 virus VP1 protein [12] = test: Immunofluorescence assay of VP1; format: cell-based, enterovirus A71; settings: MOI 1, 16 h.p.i.
EV-A71 virus [13] = test: Virus particle yield in supernatant (TCID50); format: cell-based, enterovirus A71; settings: RD cells, MOI 0.1, supernatant, 30 h.p.i.
CV-A16 190-D1 strain = test: CPE protection assay, CV-A16; format: cell-based, coxsackievirus A16; settings: Enterovirus A, CVA16, CV-A16 190-D1, RD
EV-A71 H strain [14] = test: Time-of-drug-addition assay (qRT-PCR); format: cell-based, enterovirus A71; settings: RD cells, 10 μM, MOI 0.01, 30 h.p.i.
EV-A71 = tested on: EV-A71; set-up: method as in earlier work; settings: cited from earlier work
[15] = Enterovirus A, CVA6, CV-A6 TW-2007-00141, RD
[16] = 66.6 mg/kg (66.67 printed for EIDD-2801) i.p. once a day for 7 days, until 21 d.p.i.
[17] = 200 mg/kg i.p. once a day for 7 days, observed until 21 d.p.i.

Row | SMILES | EC50 (EV-A71 H strain [1]; EVA71, Huh-7, Huh7 cells) [µM] | EC50 (EV-A71 H strain [1]; EVA71, RD cells) [µM] | EC50 (EV-A71 H strain [1]; EVA71, Vero cells) [µM] | replication of viral RNA (qRT-PCR) (EV-A71 virus [2]) | CC50 at 72 h [3] [µM] | EC50 (EV-A71 AH08/06 strain) [µM] | EC50 [5, 15] [µM] | viral RNA loads in brain, heart, intestine, liver, limb muscle and lung (EV-A71 virus (H strain) [6]) | CC50 at 72 h [7] [µM] | expression levels of viral VP1 proteins (Western blot) (EV-A71 virus VP1 protein [8]) | CC50 at 72 h [9] [µM] | survival (EV-A71 virus (H strain) [10]; [16]) | survival (EV-A71 virus (H strain) [10]; [17]) | propagation of infectious viral particles (EV-A71 virus [13]) | other results
1 | CC(C)C(=O)OC[C@H]1O[C@@H](n2ccc(NO)nc2=O)[C@H](O)[C@@H]1O [EIDD-2801, molnupiravir] | 35.6 ± 0.47 | 70.1 ± 4.4 | 88.5 ± 3.18 | inhibited the replication of viral RNA in a dose-dependent manner | > 100 | 30.3 ± 0.55 | > 100 | significantly reduced | > 100 | significantly attenuated | > 100 | 67% | 100% | inhibited | half-cytotoxic concentration (CC50) (Vero cells): no significant cytotoxicity; EC50 [4]: 86.2 ± 9.17 µM; half-cytotoxic concentration (CC50) (Huh7 cells): no significant cytotoxicity; EC50 (CV-B3 Nancy strain): 87.2 ± 10.8 µM; half-cytotoxic concentration (CC50) (RD cells): no significant cytotoxicity; Cmax [11]: 16.1 µM; expression of EV-A71 VP1 protein (immunofluorescence) (EV-A71 virus VP1 protein [12]; 100 µM): partly inhibited; EC50 (CV-A16 190-D1 strain): 44.9 ± 4.23 µM
2 | O=c1[nH]c(=NO)ccn1[C@@H]1O[C@H](CO)[C@@H](O)[C@H]1O [EIDD-1931, β-D-N^4-hydroxycytidine] | 4.43 ± 0.33 | 5.13 ± 0.56 | 7.04 ± 0.38 | inhibited the replication of viral RNA in a dose-dependent manner | 14.1 ± 0.43 | 2.79 ± 0.89 | < 20 | significantly reduced | 34.09 ± 0.06 | significantly attenuated | 80.47 ± 0.02 | all survived | all survived | inhibited | EV-A71 viral RNA production, drug added at stages III and IV (post-entry) (EV-A71 H strain [14]): inhibited; EC50 ([5]; CV-A6 TW-2007-00141, RD): 15.7 ± 0.38 µM; survival protection (EV-A71 virus (H strain) [10]; 22.2 mg/kg i.p. once a day for 7 days, until 21 d.p.i.): 60%; body weight (EV-A71 virus (H strain) [10]; 66.6 mg/kg i.p. for 7 days, until 21 d.p.i.): good weight maintenance and growth; body weight (EV-A71 virus (H strain) [10]; 200 mg/kg i.p. for 7 days, until 21 d.p.i.): good weight maintenance and growth; time within which the mice died (EV-A71 virus (H strain) [10]; low-dose group 7.41 mg/kg i.p. once a day for 7 days): ≤ 12 days; expression of EV-A71 VP1 protein (immunofluorescence) (EV-A71 virus VP1 protein [12]; 10 µM): almost completely blocked
3 | C#C[C@@]1(O)[C@H](O)[C@@H](CO)O[C@H]1n1ccc2c(N)ncnc21 [NITD008, 7-Deaza-2′-C-acetylene-adenosine] |  |  |  |  |  |  |  |  |  |  |  |  |  |  | anti-EV-A71 activity (EV-A71): potent anti-EV-A71 activity
